Test results published in patent EP4772510A2, “BENZAZEPINONE COMPOUND AND USE THEREOF” (HANGZHOU BIO-SINCERITY PHARMA-TECHCO., LTD., priority 2023, dated 2025).

Target: T1, hERG ion channel (Homo sapiens, UniProt Q12809)
T1 construct: expressed in transfected cells
Assay: Inhibition of hERG ion channel (whole-cell patch clamp, HEK293 cells)
Format: cell-based
Conditions: compound 10 µM, room temperature
Protocol: Example 58: Inhibition of hERG Ion Channel by Compounds
The hERG ion channel was stably expressed in HEK293 cells.
The test sample was dissolved in dimethyl sulfoxide (DMSO) to prepare a 9 mM stock solution, which was stored in a -20 °C freezer. On the testing day, the stock solution was further dissolved in the extracellular fluid to achieve the required concentrations. The concentration for electrophysiological test was 10 µM.
The extracellular fluid (mM) was: sodium chloride, 137; potassium chloride, 4; calcium chloride, 1.8; magnesium chloride, 1; HEPES, 10; glucose, 10. The pH was adjusted to 7.34 with sodium hydroxide. The extracellular fluid was stored at 2-8 °C.
The intracellular fluid (mM) was: potassium aspartate, 130; magnesium chloride, 5; ethylene glycol tetraacetic acid (EGTA), 5; N-2-hydroxyethylpiperazine-N'-2-ethanesulfonic acid (HEPES), 10. […]
For administration of the test samples, perfusion was carried out using a perfusion system utilizing the gravity of one's own. […] The mean of the peak current amplitudes recorded for the last three times during the initial recording served as the current peak of the negative control. After the initial current was stable, the test samples were administered starting from a low concentration until three recorded peak currents were again stable or the peak currents were "constant" after and before continuous administration for 5 min. […]

T1 sequence (Q12809 whole entry): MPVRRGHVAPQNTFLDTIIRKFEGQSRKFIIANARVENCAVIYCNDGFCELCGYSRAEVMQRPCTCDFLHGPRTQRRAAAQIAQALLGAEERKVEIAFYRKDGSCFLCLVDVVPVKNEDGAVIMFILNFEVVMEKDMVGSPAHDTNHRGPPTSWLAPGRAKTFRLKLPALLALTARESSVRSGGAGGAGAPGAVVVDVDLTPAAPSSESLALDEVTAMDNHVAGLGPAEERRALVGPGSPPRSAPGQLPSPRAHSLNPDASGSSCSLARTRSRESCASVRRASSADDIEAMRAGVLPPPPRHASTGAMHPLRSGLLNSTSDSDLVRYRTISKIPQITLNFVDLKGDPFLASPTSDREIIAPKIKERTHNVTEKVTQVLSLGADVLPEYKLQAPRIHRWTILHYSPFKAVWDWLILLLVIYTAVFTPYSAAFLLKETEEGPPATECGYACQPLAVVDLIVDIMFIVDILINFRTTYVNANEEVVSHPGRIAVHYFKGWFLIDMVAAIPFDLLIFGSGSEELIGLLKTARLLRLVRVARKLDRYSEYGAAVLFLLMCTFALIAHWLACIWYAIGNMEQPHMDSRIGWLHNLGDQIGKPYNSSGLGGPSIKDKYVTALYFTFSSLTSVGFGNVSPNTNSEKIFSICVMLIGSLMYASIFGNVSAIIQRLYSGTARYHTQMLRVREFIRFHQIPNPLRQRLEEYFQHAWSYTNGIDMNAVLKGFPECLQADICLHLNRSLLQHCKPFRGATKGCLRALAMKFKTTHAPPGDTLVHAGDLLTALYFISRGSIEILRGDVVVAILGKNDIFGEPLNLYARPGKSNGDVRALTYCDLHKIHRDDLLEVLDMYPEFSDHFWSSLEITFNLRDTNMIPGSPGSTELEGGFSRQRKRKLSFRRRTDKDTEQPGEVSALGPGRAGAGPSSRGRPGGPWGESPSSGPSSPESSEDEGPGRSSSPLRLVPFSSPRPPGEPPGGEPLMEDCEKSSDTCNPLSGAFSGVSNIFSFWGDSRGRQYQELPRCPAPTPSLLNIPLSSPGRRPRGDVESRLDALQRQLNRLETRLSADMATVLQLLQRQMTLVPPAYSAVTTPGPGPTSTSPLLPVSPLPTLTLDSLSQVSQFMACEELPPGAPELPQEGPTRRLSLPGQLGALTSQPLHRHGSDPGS

Compound | Percentage blocking rate of hERG channel [%]
O=C(NC1CCc2cc(C#Cc3cnn(C(F)F)c3)cc3c2N(CC3)C1=O)c1ncn(Cc2c(F)cccc2F)n1 (centres unmarked) [III-17, 1-(2,6-difluorobenzyl)-N-(9-((1-(difluoromethyl)-1H-pyrazol-4-yl)ethynyl)-4-oxo-1,2,3,4,6,7-hexahydroazepino[3,2,1-hi]indol-3-yl)-1H-1,2,4-triazole-3-carboxamide] | 38.89
N-(9-((1-(difluoromethyl)-1H-pyrazol-4-yl)ethynyl)-4-oxo-1,2,3,4,6,7-hexahydroazepino[3,2,1-hi]indol-3-yl)-1-(4-methylbenzyl)-1H-1,2,4-triazole-3-carboxamide [III-25] | 39.58
